Broadly, the Kd is the concentration at which binding is half-saturated.

The assay concerns the target T1, UDP-3-O-acyl-N-acetylglucosamine deacetylase (Pseudomonas aeruginosa (strain ATCC 15692 / DSM 22644 / CIP 104116 / JCM 14847 / LMG 12228 / 1C / PRS 101 / PAO1), UniProt P47205).
T1 sequence (P47205 whole entry): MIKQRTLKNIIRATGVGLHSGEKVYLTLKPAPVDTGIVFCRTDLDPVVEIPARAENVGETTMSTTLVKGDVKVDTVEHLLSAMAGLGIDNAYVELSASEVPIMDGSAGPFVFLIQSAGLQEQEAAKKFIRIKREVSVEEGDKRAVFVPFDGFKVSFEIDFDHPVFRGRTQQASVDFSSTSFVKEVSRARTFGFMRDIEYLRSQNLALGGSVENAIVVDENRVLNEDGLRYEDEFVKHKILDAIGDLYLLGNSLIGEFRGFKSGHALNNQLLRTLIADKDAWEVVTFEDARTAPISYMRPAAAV
The experiment in a line: Thermofluor_Method1. In general terms: DSF heats the sample and reads unfolding from a dye or from intrinsic fluorescence.
As for `CC1(CNC(=O)c2ccc(-c3ccccc3)cc2)NC(=O)NC1=O` (stereo unspecified) [CS21], the Kd is over 100 µM.

`CC1(CNC(=O)c2ccc(C#Cc3ccccc3)cc2)NC(=O)NC1=O` (stereo unspecified) [CS22] displayed a Kd of 93.4 µM. To `CC1(CNC(=O)c2ccc(-c3ccc(Br)cc3)cc2)NC(=O)NC1=O` (stereo unspecified) [CS23] belongs over 100 µM; to `CC1(CNC(=O)c2ccc(C#CC#Cc3ccccc3)cc2)NC(=O)NC1=O` (stereo unspecified) [CS243], 63.9 µM. In the case of `NC[C@H](NC(=O)c1ccc(-c2ccccc2)cc1)C(=O)NO` [CS249] it was 0.393 µM; in that of `NC[C@H](NC(=O)c1ccc(-c2ccc(Br)cc2)cc1)C(=O)NO` [CS250], 0.19 µM; in that of `NC[C@H](NC(=O)c1ccc(C#CC#Cc2ccccc2)cc1)C(=O)NO` [CS252], 0.0586 µM. To `C[C@@H](O)[C@H](NC(=O)c1ccc(-c2ccccc2)cc1)C(=O)NCC1(C)NC(=O)NC1=O` (stereo partly specified) [CS253] belongs over 100 µM; to `C[C@@H](O)[C@H](NC(=O)c1ccc(C#Cc2ccccc2)cc1)C(=O)NCC1(C)NC(=O)NC1=O` (stereo partly specified) [CS254], over 100 µM; to `C[C@@H](O)[C@H](NC(=O)c1ccc(C#CC#Cc2ccccc2)cc1)C(=O)NCC1(C)NC(=O)NC1=O` (stereo partly specified) [CS255], over 100 µM. Turning to `C[C@@H](O)[C@H](NC(=O)c1ccc(-c2ccc(Br)cc2)cc1)C(=O)NCC1(C)NC(=O)NC1=O` (stereo partly specified) [CS256], the equilibrium dissociation constant (Kd) is over 100 µM. Consider `C[C@@H](O)[C@H](NC(=O)c1ccc(C#CC#Cc2ccccc2)cc1)C(=O)NO` [CS257], for which the Kd came out at 0.00835 µM. In the case of `C[C@@H](O)[C@H](NC(=O)c1ccc(-c2ccc(Br)cc2)cc1)C(=O)NO` [CS258] it was 0.0332 µM; in that of `C[C@@H](O)[C@H](NC(=O)c1ccc(C#Cc2ccccc2)cc1)C(=O)NO` [CS259], 0.0201 µM; in that of `C[C@@H](O)[C@H](NC(=O)c1ccc(-c2ccccc2)cc1)C(=O)NO` [CS263], 0.0745 µM. In the case of `CC1(CNC(=O)[C@H](CN)NC(=O)c2ccc(-c3ccccc3)cc2)NC(=O)NC1=O` (stereo partly specified) [CS264], the Kd is over 100 µM. To `CC1(CNC(=O)[C@H](CN)NC(=O)c2ccc(C#CC#Cc3ccccc3)cc2)NC(=O)NC1=O` (stereo partly specified) [CS265] belongs over 100 µM.

In the case of `CC1(CNC(=O)[C@H](CN)NC(=O)c2ccc(C#Cc3ccccc3)cc2)NC(=O)NC1=O` (stereo partly specified) [CS266], the dissociation constant (Kd) was over 100 µM. Consider `CC1(CNC(=O)[C@H](CN)NC(=O)c2ccc(-c3ccc(Br)cc3)cc2)NC(=O)NC1=O` (stereo partly specified) [CS267], for which the Kd is over 100 µM. To `O=C(NO)[C@H]1COC(c2ccc([N+](=O)[O-])cc2)=N1` [CS268] belongs 7.25 µM; to `O=C(NO)[C@H]1COC(c2ccc(OCc3cccc(F)c3)c(OC(F)(F)F)c2)=N1` [CS269], over 100 µM; to `O=C(NO)[C@H]1COC(c2ccc(OC(F)(F)F)c(Cl)c2)=N1` [CS270], 3.8 µM. In the case of `O=C(NO)[C@H]1COC(c2ccc(F)c(C(F)(F)F)c2)=N1` [CS271] it was 1.03 µM; in that of `O=C(NO)[C@H]1COC(c2cc3cc(F)ccc3[nH]2)=N1` [CS272], 1.5 µM.

The molecule `CN(C)c1ccc(C2=N[C@@H](C(=O)NO)CO2)cc1` [CS273] gave a Kd of over 100 µM. For `CCCc1ccc(-c2ccc(C3=N[C@@H](C(=O)NO)CO3)cc2)cc1` [CS274], the affinity, expressed as Kd, was 15.6 µM.

Turning to `O=C(NO)c1csc(-c2ccc(OC(F)(F)F)c(Cl)c2)n1` [CS275], binding was put at a Kd of 21.5 µM.

As to `O=C(NO)C1=C[SiH2]C(c2ccc(F)cc2)=N1` (stereo unspecified) [CS276], binding was put at a Kd of 28.5 µM.

In turn, `O=C(NO)c1csc(-c2ccc(F)c(C(F)(F)F)c2)n1` [CS277] showed a dissociation constant (Kd) of 2.91 µM. As for `CN(C)c1ccc(-c2nc(C(=O)NO)cs2)cc1` [CS278], the affinity, expressed as Kd, was 28.2 µM.

Regarding `O=C(NO)[C@H]1COC(c2ccc(F)cc2)=N1` [CS279], the affinity, expressed as Kd, was 11.1 µM.

Values taken from BindingDB's records for doi:10.7270/Q2HM57BR (D3R/Abbott, 2015).
